# Measurements published in PubChem BioAssay (NCI).
#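 GI50: concentration for 50% inhibition of growth. At the TGI there is no net growth.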
# Tests used:
# Assay in all cases: growth of human tumour cells (NCI), 384-well format
# U251 glioblastoma = system: U251 glioblastoma
# MALME-3M melanoma = system: MALME-3M melanoma
# K-562 leukemia = system: K-562 leukemia
# NCI-H226 lung = system: NCI-H226 lung
# MDA-MB-435 melanoma = system: MDA-MB-435 melanoma
# PC-3 prostate = system: PC-3 prostate
# T-47D breast = system: T-47D breast
# MCF7 breast = system: MCF7 breast
# SK-MEL-5 melanoma = system: SK-MEL-5 melanoma
# HS 578T breast = system: HS 578T breast
# LOX IMVI melanoma = system: LOX IMVI melanoma
# A498 renal = system: A498 renal
# SF-268 CNS = system: SF-268 CNS
# SK-OV-3 ovarian = system: SK-OV-3 ovarian
# HCT-15 colon = system: HCT-15 colon
# SN12C renal = system: SN12C renal
# OVCAR-8 ovarian = system: OVCAR-8 ovarian
# HCT-116 colon = system: HCT-116 colon
# MDA-MB-231 breast = system: MDA-MB-231 breast
# TK-10 renal = system: TK-10 renal
# A549 NSCLC = system: A549 NSCLC
# SNB-75 CNS = system: SNB-75 CNS
# SK-MEL-28 melanoma = system: SK-MEL-28 melanoma
# CAKI-1 renal = system: CAKI-1 renal
# COLO 205 colon = system: COLO 205 colon
# ACHN renal = system: ACHN renal
# HOP-92 NSCLC = system: HOP-92 NSCLC
# SW-620 colon = system: SW-620 colon
# HT29 colon = system: HT29 colon
# OVCAR-3 ovarian = system: OVCAR-3 ovarian
# EKVX NSCLC = system: EKVX NSCLC
# NCI-H322M lung = system: NCI-H322M lung
# UO-31 renal = system: UO-31 renal
# SNB-19 CNS = system: SNB-19 CNS
# SK-MEL-2 melanoma = system: SK-MEL-2 melanoma
# KM12 colon = system: KM12 colon
# UACC-62 melanoma = system: UACC-62 melanoma
# IGROV1 ovarian = system: IGROV1 ovarian
# OVCAR-4 ovarian = system: OVCAR-4 ovarian
# HCC-2998 colon = system: HCC-2998 colon
# SF-295 CNS = system: SF-295 CNS
# NCI-H522 lung = system: NCI-H522 lung
# UACC-257 melanoma = system: UACC-257 melanoma
# OVCAR-5 ovarian = system: OVCAR-5 ovarian
compound,measurement,setting,value
Nc1ccn(C2OC(CO)C(O)C2(F)F)c(=O)n1 (configuration not stated),TGI,U251 glioblastoma,25.2 nM
same,TGI,MALME-3M melanoma,> 22100 nM
same,TGI,K-562 leukemia,> 100000 nM
same,GI50,NCI-H226 lung,< 16.2 nM
same,TGI,NCI-H226 lung,73.4 nM
same,GI50,MDA-MB-435 melanoma,301 nM
same,TGI,MDA-MB-435 melanoma,> 100000 nM
same,GI50,PC-3 prostate,> 100000 nM
same,TGI,PC-3 prostate,> 100000 nM
same,GI50,T-47D breast,552 nM
same,TGI,T-47D breast,> 100000 nM
same,TGI,MCF7 breast,> 100000 nM
same,TGI,SK-MEL-5 melanoma,< 16.8 nM
same,GI50,HS 578T breast,< 33.3 nM
same,TGI,HS 578T breast,> 40800 nM
same,TGI,LOX IMVI melanoma,33 nM
same,TGI,A498 renal,> 100000 nM
same,TGI,SF-268 CNS,18.5 nM
same,GI50,SK-OV-3 ovarian,31.8 nM
same,TGI,SK-OV-3 ovarian,> 100000 nM
same,TGI,HCT-15 colon,> 100000 nM
same,GI50,SN12C renal,18.5 nM
same,TGI,SN12C renal,64.9 nM
same,TGI,OVCAR-8 ovarian,< 33.5 nM
same,TGI,HCT-116 colon,> 36900 nM
same,GI50,MDA-MB-231 breast,95.7 nM
same,TGI,TK-10 renal,> 100000 nM
same,TGI,A549 NSCLC,> 100000 nM
same,GI50,SNB-75 CNS,< 15.5 nM
same,TGI,SNB-75 CNS,< 30.5 nM
same,TGI,SK-MEL-28 melanoma,> 100000 nM
same,TGI,CAKI-1 renal,173 nM
same,GI50,COLO 205 colon,27.7 nM
same,TGI,COLO 205 colon,140 nM
same,TGI,ACHN renal,< 10.8 nM
same,GI50,HOP-92 NSCLC,40.7 nM
same,TGI,HOP-92 NSCLC,> 33100 nM
same,GI50,SW-620 colon,< 15.8 nM
same,TGI,SW-620 colon,> 100000 nM
same,GI50,HT29 colon,< 11.2 nM
same,TGI,HT29 colon,3040 nM
same,TGI,OVCAR-3 ovarian,> 100000 nM
same,GI50,EKVX NSCLC,8710 nM
same,TGI,EKVX NSCLC,> 100000 nM
same,GI50,NCI-H322M lung,1090 nM
same,TGI,NCI-H322M lung,> 100000 nM
same,TGI,UO-31 renal,< 21.3 nM
same,TGI,SNB-19 CNS,517 nM
same,TGI,SK-MEL-2 melanoma,15300 nM
same,GI50,KM12 colon,15.3 nM
same,TGI,KM12 colon,> 100000 nM
same,TGI,UACC-62 melanoma,19.4 nM
same,TGI,IGROV1 ovarian,> 100000 nM
same,GI50,OVCAR-4 ovarian,> 100000 nM
same,TGI,OVCAR-4 ovarian,> 100000 nM
same,TGI,HCC-2998 colon,> 100000 nM
same,GI50,SF-295 CNS,< 14.6 nM
same,TGI,SF-295 CNS,25.4 nM
same,TGI,NCI-H522 lung,5710 nM
same,GI50,UACC-257 melanoma,< 18.3 nM
same,GI50,OVCAR-5 ovarian,48.1 nM
same,TGI,OVCAR-5 ovarian,> 100000 nM
